These results are taken from article PMC12838199, “A highly conserved ABC transporter mediates cello-oligosaccharide uptake in the extremely thermophilic, lignocellulolytic bacterium Anaerocellum bescii (f. Caldicellulosiruptor bescii)” (Applied and Environmental Microbiology, 2025).

Common to all, as to type: binding
Experiment [1] deals with T1, Athe_0597 (Caldicellulosiruptor bescii, UniProt A0ABY1SBW7).
T1 construct: gene SAMN05216240_2513; IMAC purified after 68 °C heat treatment
Briefly: differential scanning calorimetry. The following applies: 5 mM sugar, 2 mg/mL protein, 50 mM HEPES, 300 mM NaCl, pH 7.0; 4 °C/min. The text has this:
differential scanning calorimetry on Athe_0597

The target in experiment [2] is T1, Athe_0597. Put plainly: isothermal titration calorimetry. The following applies: 25 °C; 50 mM HEPES, 300 mM NaCl, pH 7.0 (storage and characterization buffer); single-site model. An excerpt:
isothermal titration calorimetry on Athe_0597

Experiment [3] has as its target T2, Athe_0598 (Caldicellulosiruptor bescii, UniProt A0ABY1SBM3).
T2 construct: gene SAMN05216240_2512; IMAC purified after 68 °C heat treatment
Briefly: isothermal titration calorimetry. The following applies: 25 °C; 50 mM HEPES, 300 mM NaCl, pH 7.0 (storage and characterization buffer); single-site model. An excerpt: isothermal titration calorimetry on Athe_0598

Experiment [4] concerns the target T2, Athe_0598. Put plainly: differential scanning calorimetry. The following applies: 5 mM sugar, 2 mg/mL protein, 50 mM HEPES, 300 mM NaCl, pH 7.0; 4 °C/min. The text has this:
differential scanning calorimetry on Athe_0598

Molecules are shown by their SMILES.

T1 sequence (A0ABY1SBW7 entry or part of it): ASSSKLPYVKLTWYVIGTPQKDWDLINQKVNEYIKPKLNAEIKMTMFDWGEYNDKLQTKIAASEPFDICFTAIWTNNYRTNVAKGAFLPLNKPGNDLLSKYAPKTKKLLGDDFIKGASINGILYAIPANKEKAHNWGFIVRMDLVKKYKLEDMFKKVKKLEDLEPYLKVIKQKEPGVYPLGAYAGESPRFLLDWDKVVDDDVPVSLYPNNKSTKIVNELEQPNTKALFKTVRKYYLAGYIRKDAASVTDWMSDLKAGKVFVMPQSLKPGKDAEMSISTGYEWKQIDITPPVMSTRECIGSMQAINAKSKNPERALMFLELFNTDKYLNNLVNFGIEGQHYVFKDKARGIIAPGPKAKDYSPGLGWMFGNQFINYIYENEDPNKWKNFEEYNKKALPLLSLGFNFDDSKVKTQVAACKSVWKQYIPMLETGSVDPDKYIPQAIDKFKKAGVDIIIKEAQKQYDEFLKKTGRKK
T2 sequence (A0ABY1SBM3 entry or part of it): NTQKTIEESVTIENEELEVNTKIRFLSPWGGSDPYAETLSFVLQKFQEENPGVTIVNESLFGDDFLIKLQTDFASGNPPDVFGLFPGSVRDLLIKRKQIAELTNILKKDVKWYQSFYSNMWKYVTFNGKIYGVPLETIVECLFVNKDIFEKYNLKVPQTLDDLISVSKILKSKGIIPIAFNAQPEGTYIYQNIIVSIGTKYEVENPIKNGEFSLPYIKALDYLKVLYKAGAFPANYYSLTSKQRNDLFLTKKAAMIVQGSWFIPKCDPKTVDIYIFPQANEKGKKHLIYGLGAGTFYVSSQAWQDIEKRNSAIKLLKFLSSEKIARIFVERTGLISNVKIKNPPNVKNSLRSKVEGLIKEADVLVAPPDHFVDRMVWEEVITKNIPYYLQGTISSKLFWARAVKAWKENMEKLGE

For `OC[C@H]1O[C@@H](O[C@H]2[C@H](O)[C@@H](O)[C@H](O[C@H]3[C@H](O)[C@@H](O)[C@H](O[C@H]4[C@H](O)[C@@H](O)C(O)O[C@@H]4CO)O[C@@H]3CO)O[C@@H]2CO)[C@H](O)[C@@H](O)[C@@H]1O` (stereo partly shown) [G4, cellotetraose], the “ΔTm (°C)” value on Athe_0597 [1] is 9.30 °C. At Athe_0597 [2], the Kd worked out at 1970 ± 520 nM.
In the same order, the values of `OC[C@H]1O[C@@H](O[C@H]2[C@H](O)[C@@H](O)[C@H](O[C@H]3[C@H](O)[C@@H](O)[C@H](O[C@H]4[C@H](O)[C@@H](O)[C@H](O[C@H]5[C@H](O)[C@@H](O)C(O)O[C@@H]5CO)O[C@@H]4CO)O[C@@H]3CO)O[C@@H]2CO)[C@H](O)[C@@H](O)[C@@H]1O` (stereo partly shown) [G5, cellopentaose] are 8.72 °C and 1180 ± 120 nM.
On to `OC[C@H]1O[C@@H](O[C@H]2[C@H](O)[C@@H](O)C(O)O[C@@H]2CO)[C@H](O)[C@@H](O)[C@@H]1O` (stereo partly shown) [G2, cellobiose], for which the Kd at Athe_0598 [3] came out at 2840 ± 360 nM; on Athe_0597 [2], 228 ± 100 nM. The entries for the “ΔTm (°C)” value at Athe_0598 [4] and at Athe_0597 [1] were 8.53 °C and 7.57 °C, respectively.
As for `OC[C@H]1O[C@@H](O[C@H]2[C@H](O)[C@@H](O)[C@H](O[C@H]3[C@H](O)[C@@H](O)C(O)O[C@@H]3CO)O[C@@H]2CO)[C@H](O)[C@@H](O)[C@@H]1O` (stereo partly shown) [G3, cellotriose], at Athe_0597 [1], the “ΔTm (°C)” value is 6.89 °C. Besides, the Kd on Athe_0597 [2] turned out to be 942 ± 120 nM.
